Consider 37 compounds from patent US10849901B2, “Arf6 inhibitors and methods of synthesis and use thereof” (Navigen, Inc., priority 2014, dated 2020).

Where two headings read alike, the source gives them in different places.

In one data set the target is Arf6 (Homo sapiens (Human), UniProt P62330). The data set can be described thus: Fluorometric assay for Arf6 nucleotide exchange catalyzed by ARNO Sec7 domain (GTP-BODIPY FL). It counts as biochemical. The settings on record: for inhibition at 10 µM: 20 nM assay, 10 μM concentration. On the procedure: FIGS. 1A-1D: Fluorometric high throughput assay for Arf6 nucleotide exchange catalyzed by ARNO Sec7 domain. FIG. 1A: Principle of the assay. FIG. 1B: SDS-PAGE analysis of N-terminally His-tagged Arf6(14-175) and ARNO(50-255) purified from the E. coli cultures by immobilized metal affinity chromatography. FIG. 1C: Correlation between signal intensity and ARNO concentration. The assay was performed using 50 mM Tris-HCl, pH 7.5, 1 mM MgCl2, 0.01% TX-100, 1% DMSO, 50 nM GTP-BODIPY FL, supplemented with ARNO-Sec7 at indicated concentrations in the absence or in the presence of 0.2 μM Arf6-GDP. Fluorescence intensities were monitored using a Synergy 4 plate reader (BioTek) at the excitation and emission wavelengths of 490 nm and 520 nm, respectively. FIG. 1D: Time course of apparent inhibitory potency of GDP. The assay was performed in automated mode using a Matrix PlateMate liquid handler.
The primary biochemical assay uses a fluorometric assay for monitoring the replacement of bound nucleotide with a fluorogenic GTP derivative bearing a BODIPY FL moiety, allowing for the identification of compounds that can inhibit this exchange (see FIG. 1A). In certain embodiments, the methods disclosed herein may exploit the reduction of intramolecular fluorescence quenching of the modified nucleotide upon its binding to the target protein (see, e.g., McEwen D P, Gee K R, Kang H C, Neubig R R. Fluorescent BODIPY-GTP analogs: real-time measurement of nucleotide binding to G proteins. Anal Biochem. 2001 Apr. 1; 291(1): 109-17).
The fluorometric assay formatted for 96-well microtiter plates has passed quality control based on the following criteria: i) S/B ratio of 4-fold and Z′-factor of 0.61; ii) linear correlation between signal intensity and ARNO concentration (see FIG. 1C); iii) sufficiently reproducible inhibitory effects of the reference inhibitor GDP for assay durations up to at least 1 hour (see FIG. 1D); and iv) lack of apparent fluorescence quenchers among 400 randomly selected compounds. The assay is amenable to automation with a throughput of approximately 5,000 data points per 8 hours.

Data set [1] has as its system oxygen-induced retinopathy. Briefly: Oxygen-induced retinopathy (OIR) in mice. It counts as in vivo. The settings on record: 5 μg intraocular Days 12 and 15, measured Day 17. On the procedure: In the experiment, mice pups were placed in a 75% oxygen environment from Days 5-12. The mice were returned to a normal oxygen environment on Day 13. The test compounds were administered (5 μg) by intraocular injection on Days 12 and 15, and the area of neovascularization was measured on Day 17. Compound 38 was compared with SU4312 in oxygen-induced retinopathy (OIR) in mice (see FIG. 11). […]

The test system of data set [2] is collagen-induced arthritis. Briefly: Mouse model of collagen-induced arthritis. It is filed as in vivo. The conditions noted are these: mice, 14 days; Compound 4 10, 30, 60 mg/kg BID; Enbrel 10 mg/kg QD. On the procedure:
In the experiment, mice were immunized with collagen on Days 1 and 21, and randomized to treatment groups on or around Day 28, then subject to fourteen days of treatment with a test compound. Vehicle (●), Compound 4 at 10 mg/kg (▴), Compound 4 at 30 mg/kg (▾), Compound 4 at 60 mg/kg (♦), or Enbrel (▪; 10 mg/kg) was given. Compound 4 was given twice daily (BID); Enbrel was given once daily (QD); and vehicle was given twice daily (BID).

The test system of data set [3] is VEGF-induced retinal permeability. Briefly: VEGF-induced retinal permeability in mice (Evans blue dye). It counts as in vivo. As for the experimental part:
In the experiment, VEGF (50 ng) and either Compound 38 or 65 (500 ng) or NAV-3745 (500 ng) were given to mice in a single intraocular injection. Evans blue dye (EBD) was given via IV approximately 6 hours after the injection, and the retinas were harvested after an additional 2 hours. Retinal permeability was measured on Day 2 after an overnight extraction of EBD in formamide, at OD 620-740 nm.
In the experiment, VEGF (50 ng) and the test compound were given to mice in a single intraocular injection. Avastin was given at a dose of 20 μg, Compound 38 at either 50 ng or 500 ng (as noted in FIG. 7), and SU4312 at 5 μg. As with the previous experiment, Evans blue dye (EBD) was given via IV approximately 6 hours after the injection, and the retinas were harvested after an additional 2 hours. Retinal permeability was measured on Day 2 after an overnight extraction of EBD in formamide, at OD 620-740 nm.

Data set [4] relates to LPS-induced acute lung injury. Briefly: LPS-induced acute lung injury in mice (BALF analysis). The conditions noted are these: 24 hours after LPS, Compound 38 60 mg/kg, dexamethasone 5 mg/kg. It counts as in vivo. As for the experimental part:
In the experiment, LPS (5 mg/kg) was given by intra-tracheal instillation. Dexamethasone (5 mg/kg) was given as a positive control 2 hours after the LPS. Bronchoalveolar fluid (BALF) was analyzed for cell count and protein 24 hours after the LPS.

In data set [5] the test system is VEGF-induced retinal permeability. Briefly: VEGF-induced retinal permeability in rats (Evans blue dye). It is filed as in vivo. The conditions noted are these: rat, not told, ip, 60 mg/kg. On the procedure:
In the experiment, VEGF (500 ng) and Avastin (200 μg) were given to rats in a single intraocular injection on Day 1. Compound 38 (60 mg/kg) was administered by IP injection 1 hour prior to VEGF on Day 1. Rats were given Evans blue dye (EBD) via IV infusion on Day 2, and the retinas were harvested after an additional 1.5 hours. The retinas were dissected and incubated overnight in formamide. Vascular leak was calculated on Day 3.

Where [6] appears, read: 20 nM Arf6 assay, read-out: IC50 (μM) 20 nM Arf6.
[7] abbreviates: 200 nM Arf6 assay, read-out: IC50 (μM) 200 nM Arf6.

Sequence of Arf6 (P62330 14-175): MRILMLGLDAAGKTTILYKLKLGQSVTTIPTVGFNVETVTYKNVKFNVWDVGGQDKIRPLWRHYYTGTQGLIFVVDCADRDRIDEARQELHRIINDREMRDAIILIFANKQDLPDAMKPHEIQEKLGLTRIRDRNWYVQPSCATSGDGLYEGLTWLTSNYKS

As usually defined, the IC50 is the midpoint of a concentration-inhibition curve. As to `O=c1cc(-c2cccc(Oc3ccccc3)c2)[nH]c2c(-c3ccc(Cl)c(Cl)c3)c(C(F)(F)F)nn12` [Compound 4], the values for the IC50 on Arf6 (setting [6]) and at Arf6 (setting [7]) were 0.52 µM and 0.46 µM, respectively. In data set [1], the area of neovascularization entry is “reduced the area of neovascularization”. Further, the “inflammation as measured by the arthritic index” value in data set [2] is on record as “reduced inflammation”.

For `CCC(C)(C)C1CCc2c(sc3c2C(=O)NC(c2cc(OC)c(O)c([N+](=O)[O-])c2)N3)C1` (stereo not shown) [Compound 113], the IC50 at Arf6 (setting [6]) came out at 0.56 µM.

In the case of `N#Cc1c(=O)n(-c2ccc(Cl)cc2)nc2c(=O)n(N)c(-c3ccccc3Cl)cc12` [Compound 114], on Arf6 (setting [6]), the IC50 came out at 1.1 µM.

As for `Cc1cccc(N2C(=O)/C(=C/c3cc([N+](=O)[O-])cc(Br)c3O)SC2=S)c1` [Compound 115], at Arf6 (setting [7]), the IC50 is 1.1 µM.

As for `CCOc1ccc(-c2nn(-c3ccccc3)cc2/C=C2\SC(=S)N(CCC(=O)O)C2=O)cc1C` [Compound 116], the half-maximal inhibitory concentration (IC50) at Arf6 (setting [7]) turned out to be 1.4 µM.

Turning to `N#Cc1c(SCc2cc(=O)[nH]c(=O)[nH]2)nc2c(c1-c1ccccc1)CC/C2=C\c1ccccc1` [Compound 117], at Arf6 (setting [7]), the IC50 came to 1.5 µM.

On to `O=C1NC(=S)N(c2cccc(Cl)c2)C(=O)/C1=C/c1cccn1-c1ccc(Cl)cc1` [Compound 118], for which the 50% inhibitory concentration (IC50) at Arf6 (IC50 (μM) 200 nM Arf6, 200 nM Arf6 assay) was 1.8 µM.

For `O=C(Nc1cc(Cl)c(-c2cccc3cccnc23)c(Cl)c1)c1cc(Cl)cc(Br)c1O` [Compound 119], the IC50 at Arf6 (setting [6]) worked out at 2.1 µM.

As for `O=c1nc(/C=C/c2ccc(-c3cc(Cl)cc(Cl)c3)o2)cc(C(F)(F)F)[nH]1` [Compound 120], at Arf6 (setting [6]), the IC50 was determined as 3.4 µM.

Take `O=C1NC(=S)S/C1=C/c1ccc(N2N=C(c3ccccc3)CC2c2ccccc2)cc1` (stereo not shown) [Compound 121]: the IC50 on Arf6 (setting [6]) was found to be 3.7 µM.

Consider `Cc1cccc(-n2c(/C=C/c3cccnc3)nc3ccccc3c2=O)c1` [Compound 122], for which the 50% inhibitory concentration (IC50) on Arf6 (setting [7]) was 4.7 µM.

For the compound `Nc1scc2c(-c3nnc(Nc4ccccc4)s3)nn(-c3ccc([N+](=O)[O-])cc3)c(=O)c12` [Compound 123], the IC50 at Arf6 (setting [6]) was found to be 5.1 µM.

As for `O=C1NC(=O)c2ccccc2/C1=C/c1cnn(Cc2ccccc2)c1` [Compound 124], the IC50 on Arf6 (setting [6]) was 5.4 µM.

For the compound `COc1ccc(C(=O)Nc2cccc(/C=C3\C(=O)NC(=O)c4ccccc43)c2)cc1` [Compound 125], the IC50 on Arf6 (setting [6]) was 6.5 µM.

With `CC(C)(C)c1ccc(S(=O)(=O)Nc2ccc(O)c3ccccc23)cc1` [Compound 126], on Arf6 (setting [7]), the IC50 is 6.7 µM.

Regarding `O=C(O)c1ccc(C2Nc3c(Br)cccc3C3C=CCC32)cc1` (stereo not shown) [Compound 127], at Arf6 (setting [7]), the IC50 worked out at 8 µM.

As to `Cn1cc(/C=C(\CC(=O)O)C2Nc3ccccc3S2)c(-c2ccc3c(c2)OCCCO3)n1` (stereo not shown) [Compound 128], the IC50 on Arf6 (setting [6]) came to 8.4 µM.

Consider `O=c1c2c(-c3ccc(Cl)cc3)csc2[nH]c(=S)n1Cc1ccccc1` [Compound 129], for which the IC50 at Arf6 (setting [7]) stood at 9.7 µM.

For `Cc1ccc(C(=O)OCc2cc(=O)n3cc(Br)ccc3n2)cn1` [Compound 130], the half-maximal inhibitory concentration (IC50) on Arf6 (setting [6]) came to 9.9 µM.

Regarding `Cc1ccn2c(=O)cc(CSc3nc(C)cc(=O)[nH]3)nc2c1` [Compound 131], the IC50 on Arf6 (setting [6]) was determined as 11 µM.

`CCCc1cc(=O)[nH]c(SCc2cc(=O)n3cc(Br)ccc3n2)n1` [Compound 132]: at Arf6 (setting [6]), the half-inhibitory concentration (IC50) turned out to be 30 µM.

For `Cn1c(N)c(C(=O)COC(=O)c2ccccc2SCc2ccc(C#N)cc2)c(=O)[nH]c1=O` [Compound 134], the IC50 on Arf6 (setting [6]) stood at 13 µM.

In the case of `O=C1/C(=N/Nc2nc3ccccc3s2)C(c2ccccc2)=NN1c1nc(-c2ccccc2)cs1` [Compound 135], the IC50 at Arf6 (setting [6]) turned out to be 16 µM.

Consider `Fc1ccc(C2CC(c3cccs3)=NN2c2nc(-c3ccc(-c4ccccc4)cc3)cs2)cc1` (stereo not shown) [Compound 136], for which the IC50 at Arf6 (setting [6]) came out at 16 µM.

For the compound `CSc1nnc2c(n1)OC(c1cc(O)ccc1[N+](=O)[O-])Nc1ccccc1-2` (stereo not shown) [Compound 137], the IC50 at Arf6 (setting [6]) came to 17 µM.

For `O=c1[nH]c(CSc2ncnc3sccc23)nc2ccsc12` [Compound 138], the IC50 on Arf6 (setting [6]) turned out to be 17 µM.

Turning to `O=C(COC(=O)c1cc2ccccc2[nH]1)NCCSc1ccc(Cl)cc1` [Compound 139], the IC50 at Arf6 (setting [6]) was 19 µM.

As for `O=c1c(-c2cccc3ccccc23)c(C(F)(F)F)oc2cc(O)ccc12` [Compound 140], the IC50 at Arf6 (setting [7]) was 29 µM.

Take `O=C1c2ccccc2C(=O)C1C1=NC2c3ccccc3OC2S1` (stereo not shown) [Compound 141]: the IC50 on Arf6 (setting [7]) came to 31 µM.

As to `Fc1ccc(C2=CCN(c3nc(-c4ccncc4)nc4c3CNC4)CC2)cc1` [Compound 142], the IC50 on Arf6 (setting [6]) was 1.2 µM.

Usually inhibition stands for the change of the read-out against control, counted positive when it falls. For the compound `c1nc(C2CCCNC2)cc(N2C[C@@H]3C[C@@H]4C[C@H](C3)N[C@@H]2C4)n1` (stereo partly shown) [Compound 143], at Arf6, the inhibition at 10 µM was around 31%.

Consider `CCCCC1CCCN1c1cc(C2CCNCC2)ncn1` (stereo not shown) [Compound 144], for which the inhibition at 10 µM on Arf6 was around 35%.

In the case of `COc1ccc(-c2c(Cc3ccccc3)nn3c(=O)cc(C)[nH]c23)cc1` [NAV-3745, reference compound], the VEGF-induced retinal permeability result in data set [3] (mice, 500 ng single intraocular injection with VEGF 50 ng (FIG. 6)) was “no effect”.

In the case of `C[C@@H]1C[C@H]2[C@@H]3CCC4=CC(=O)C=C[C@]4(C)[C@@]3(F)[C@@H](O)C[C@]2(C)[C@@]1(O)C(=O)CO` [dexamethasone, Dexamethasone, reference compound], in data set [4], the “number of cells in the lung fluid (BALF)” value is “reduced the number of cells” and the “protein concentration in the lung fluid (BALF)” value is given as “reduced”.

As for Avastin, the VEGF-induced retinal permeability entry in data set [3] (mouse, not told) is reported as “reduced VEGF-induced retinal permeability”; in data set [5] it was “reduced VEGF-induced retinal permeability”.

As to Enbrel, the “inflammation as measured by the arthritic index” value in data set [2] is reported as “reduced inflammation”.

SU4312 [reference compound]: the VEGF-induced retinal permeability entry in data set [3] (mouse, not told) was “little effect”. Besides, in data set [1], the area of neovascularization result is on record as “reduced the area of neovascularization”.
